Results published in ChEMBL document CHEMBL6071146, “Synthesis and identification of a selective FGFR2 degrader with potent antiproliferative effects in gastric cancer” (Eur J Med Chem, 2024).
Active and inactive are the calls of the source. The calls are words filed in the database; no cut-off is given here.

How the values were obtained:
[1] = Antiproliferative activity against human KATO III cells incubated for 72 hrs by MTT assay
SNU-16 [2] = assay: Antiproliferative activity against human SNU-16 cells incubated for 72 hrs by MTT assay; conditions: SNU-16, 72 h
SNU-16 [3] = assay: Antitumor activity against human SNU-16 cells xenografted in BALB/c mouse assessed as decrease in tumor weight at 10 to 20 mg/kg, ip qd for 25 days; format: functional, organism-based; conditions: dose 10-20 mg/kg, time 25.0 day
[4] = Toxicity in BALB/c mouse xenografted with human SNU-16 cells assessed as obvious side effect at 10 to 20 mg/kg, ip qd for 25 days; format: organism-based; conditions: in vivo, 600 h, dose 10-20 mg/kg, time 25 day
[5] = Oral bioavailability in Sprague-Dawley rat at 5 mg/kg measured for 24 hrs by LC-MS/MS analysis; format: ADME, organism-based; conditions: in vivo
KATO III [6] = assay: Induction of cell cycle arrest at G0/G1 phase in human KATO III cells assessed as reduction in CDK2 level at 500 to 1000 nM incubated for 24 hrs by Western blot analysis; format: functional, cell-based; conditions: dose 500-1000 nM
cells [7] = conditions: Homo sapiens, KATO III, 24 h, read-out: Activity
Description: Induction of apoptosis in human KATO III cells assessed as viable cells at 500 nM incubated for 24 hrs by Annexin V-FITC/PI staining based flow cytometry (Rvb = 87.00 %)

BaF3 [8] = assay: Antiproliferative activity against mouse BaF3 cells stably expressing TEL-FGFR1 incubated for 72 hrs bby CellTiter-Glo assay; conditions: BaF3, 72 h
[9] = Toxicity in BALB/c mouse xenografted with human SNU-16 cells assessed as damage in lung at 10 to 20 mg/kg, ip qd for 25 days by H and E staining based analysis; format: organism-based; conditions: in vivo, 600 h, dose 10-20 mg/kg, time 25 day
Homo sapiens = organism: Homo sapiens; assay: Induction of VEGFR2 (unknown origin) degradation
SNU-16 [10] = assay: cells; conditions: Homo sapiens, SNU-16, 24 h, read-out: Activity
Description: Induction of apoptosis in human SNU-16 cells assessed as viable cells at 1000 nM incubated for 24 hrs by Annexin V-FITC/PI staining based flow cytometry (Rvb = 77.12 %)

[11] = Toxicity in BALB/c mouse xenografted with human SNU-16 cells assessed as damage in spleen at 10 to 20 mg/kg, ip qd for 25 days by H and E staining based analysis; format: organism-based; conditions: in vivo, 600 h, dose 10-20 mg/kg, time 25 day
KATO III [12] = assay: Induction of cell cycle arrest at G0/G1 phase in human KATO III cells assessed as increase in p21 level at 500 to 1000 nM incubated for 24 hrs by Western blot analysis; format: functional, cell-based; conditions: dose 500-1000 nM
[13] = Apparent volume of distribution during terminal phase in Sprague-Dawley rat at 5 mg/kg, ip measured for 24 hrs by LC-MS/MS analysis; format: ADME, organism-based; conditions: in vivo, read-out: Vz/F
BaF3 [14] = assay: Antiproliferative activity against mouse BaF3 cells stably expressing TEL-FGFR3 incubated for 72 hrs bby CellTiter-Glo assay; conditions: BaF3, 72 h
KATO III [15] = assay: Induction of cell cycle arrest at G0/G1 phase in human KATO III cells assessed as reduction in Cyclin E level at 500 to 1000 nM incubated for 24 hrs by Western blot analysis; format: functional, cell-based; conditions: dose 500-1000 nM
[16] = Cmax in Sprague-Dawley rat at 5 mg/kg, ip measured for 24 hrs by LC-MS/MS analysis; format: ADME, organism-based; conditions: in vivo
[17] = Half life in Sprague-Dawley rat at 5 mg/kg, ip measured for 24 hrs by LC-MS/MS analysis; format: ADME, organism-based; conditions: in vivo
SNU-16 [18] = assay: Antitumor activity against human SNU-16 cells xenografted in BALB/c mouse assessed as decrease in tumor size at 10 to 20 mg/kg, ip qd for 25 days; format: functional, organism-based; conditions: dose 10-20 mg/kg, time 25.0 day
SNU-16 [19] = assay: Antitumor activity against human SNU-16 cells xenografted in BALB/c mouse at 20 mg/kg, ip qd for 25 days relative to control; conditions: SNU-16, 600 h, read-out: TGI
[20] = Clearance in Sprague-Dawley rat at 2 mg/kg, iv measured for 24 hrs by LC-MS/MS analysis; format: ADME, organism-based; conditions: in vivo
SNU-16 [21] = assay: cells; conditions: Homo sapiens, SNU-16, 24 h, read-out: Activity; remark: listed apart in the source
Description: Induction of apoptosis in human SNU-16 cells assessed as viable cells at 500 nM incubated for 24 hrs by Annexin V-FITC/PI staining based flow cytometry (Rvb = 77.12 %)

[22] = MRT (infinity) in Sprague-Dawley rat at 5 mg/kg, ip measured for 24 hrs by LC-MS/MS analysis; format: ADME, organism-based; conditions: in vivo
[23] = Volume of distribution at steady state in Sprague-Dawley rat at 2 mg/kg, iv measured for 24 hrs by LC-MS/MS analysis; format: ADME, organism-based; conditions: in vivo, read-out: Vdss
[24] = AUC (0 to t) in Sprague-Dawley rat at 2 mg/kg, iv measured for 24 hrs by LC-MS/MS analysis; format: ADME, organism-based; conditions: in vivo
KATO III [25] = assay: Induction of apoptosis in human KATO III cells assessed as increase in cleaved caspase-3 level at 0.5 to 1 uM incubated for 24 hrs by Western blot analysis; format: functional, cell-based; conditions: dose 0.5-1 µM
[26] = Tmax in Sprague-Dawley rat at 5 mg/kg, ip measured for 24 hrs by LC-MS/MS analysis; format: ADME, organism-based; conditions: in vivo
BaF3 [27] = assay: Antiproliferative activity against mouse BaF3 cells stably expressing TEL-FGFR4 incubated for 72 hrs bby CellTiter-Glo assay; conditions: BaF3, 72 h
cells [28] = conditions: Homo sapiens, KATO III, 24 h, read-out: Activity; remark: listed apart in the source
Description: Induction of apoptosis in human KATO III cells assessed as viable cells at 1000 nM incubated for 24 hrs by Annexin V-FITC/PI staining based flow cytometry (Rvb = 87.00 %)

BaF3 [29] = assay: Antiproliferative activity against mouse BaF3 cells stably expressing TEL-FGFR2 incubated for 72 hrs bby CellTiter-Glo assay; conditions: BaF3, 72 h
[30] = Half life in Sprague-Dawley rat at 2 mg/kg, iv measured for 24 hrs by LC-MS/MS analysis; format: ADME, organism-based; conditions: in vivo
[31] = Toxicity in BALB/c mouse xenografted with human SNU-16 cells assessed as damage in heart at 10 to 20 mg/kg, ip qd for 25 days by H and E staining based analysis; format: organism-based; conditions: in vivo, 600 h, dose 10-20 mg/kg, time 25 day
[32] = Toxicity in BALB/c mouse xenografted with human SNU-16 cells assessed as weight loss at 10 to 20 mg/kg, ip qd for 25 days; format: organism-based; conditions: in vivo, 600 h, dose 10-20 mg/kg, time 25 day
[33] = Toxicity in BALB/c mouse xenografted with human SNU-16 cells assessed as damage in liver at 10 to 20 mg/kg, ip qd for 25 days by H and E staining based analysis; format: organism-based; conditions: in vivo, 600 h, dose 10-20 mg/kg, time 25 day
[34] = AUC (infinity) in Sprague-Dawley rat at 5 mg/kg, ip measured for 24 hrs by LC-MS/MS analysis; format: ADME, organism-based; conditions: in vivo
KATO III [35] = assay: Induction of cell cycle arrest at G0/G1 phase in human KATO III cells assessed as reduction in Cyclin D1 level at 500 to 1000 nM incubated for 24 hrs by Western blot analysis; format: functional, cell-based; conditions: dose 500-1000 nM
[36] = Toxicity in BALB/c mouse xenografted with human SNU-16 cells assessed as drug tolerance at 10 to 20 mg/kg, ip qd for 25 days; format: organism-based; conditions: in vivo, 600 h, dose 10-20 mg/kg, time 25 day
[37] = MRT (infinity) in Sprague-Dawley rat at 2 mg/kg, iv measured for 24 hrs by LC-MS/MS analysis; format: ADME, organism-based; conditions: in vivo
[38] = Toxicity in BALB/c mouse xenografted with human SNU-16 cells assessed as damage in kidney at 10 to 20 mg/kg, ip qd for 25 days by H and E staining based analysis; format: organism-based; conditions: in vivo, 600 h, dose 10-20 mg/kg, time 25 day
[39] = AUC (infinity) in Sprague-Dawley rat at 2 mg/kg, iv measured for 24 hrs by LC-MS/MS analysis; format: ADME, organism-based; conditions: in vivo
SNU-16 [40] = assay: Induction of apoptosis in human SNU-16 cells assessed as increase in cleaved caspase-3 level at 0.5 to 1 uM incubated for 24 hrs by Western blot analysis; format: functional, cell-based; conditions: dose 0.5-1 µM
KATO III [41] = assay: Induction of cell cycle arrest at G0/G1 phase in human KATO III cells assessed as reduction in CDK4 level at 500 to 1000 nM incubated for 24 hrs by Western blot analysis; format: functional, cell-based; conditions: dose 500-1000 nM
SNU-16 [42] = assay: Antitumor activity against human SNU-16 cells xenografted in BALB/c mouse assessed as tumor growth suppression at 10 to 20 mg/kg, ip qd for 25 days; format: functional, organism-based; conditions: dose 10-20 mg/kg, time 25.0 day
[43] = Apparent oral clearance in Sprague-Dawley rat at 5 mg/kg, ip measured for 24 hrs by LC-MS/MS analysis; format: ADME, organism-based; conditions: in vivo
SNU-16 [44] = assay: Induction of cell cycle arrest at G0/G1 phase in human SNU-16 cells assessed as increase in p21 level at 500 to 1000 nM incubated for 24 hrs by Western blot analysis; format: functional, cell-based; conditions: dose 500-1000 nM
[45] = AUC (0 to t) in Sprague-Dawley rat at 5 mg/kg, ip measured for 24 hrs by LC-MS/MS analysis; format: ADME, organism-based; conditions: in vivo

## COc1cc(OC)cc(N(CCNC(C)C)c2ccc3ncc(-c4cnn(CCCC(=O)NCCNc5cccc6c5C(=O)N(C5CCC(=O)NC5=O)C6=O)c4)nc3c2)c1 (configuration not stated)
[1]
  IC50: 172 nM
SNU-16 [2]
  IC50: 234 nM

## COc1cc(OC)cc(N(CCNC(C)C)c2ccc3ncc(-c4cnn(CCCCCCC(=O)NCCNc5cccc6c5C(=O)N(C5CCC(=O)NC5=O)C6=O)c4)nc3c2)c1 (configuration not stated)
SNU-16 [3]
  Activity: Active
[4]
  Activity: Non-Toxic
[5]
  bioavailability: 74.8%
KATO III [6]
  Activity: Active
Cells [7]
  viability at 0.5 µM: 66.8%
BaF3 [8]
  IC50: 138 nM
[9]
  Activity: Non-Toxic
Homo sapiens
  Activity: inactive
[1]
  IC50: < 0.17 nM
SNU-16 [10]
  viability at 1 µM: 42.7%
[11]
  Activity: Non-Toxic
KATO III [12]
  Activity: Active
[13]
  Vd/F: 51.4 L/kg
BaF3 [14]
  IC50: 97.1 nM
KATO III [15]
  Activity: Active
[16]
  Cmax: 302 ng/mL
[17]
  half-life: 7.59 h
SNU-16 [18]
  Activity: Active
SNU-16 [19]
  inhibition in vivo at 20 mg/kg: 117%
[20]
  clearance: 59.3 mL/min/kg
SNU-16 [21]
  viability at 0.5 µM: 45.6%
[22]
  MRT inf: 6.53 h
[23]
  Vd: 7.58 L/kg
[24]
  AUC(0-t) at 24 h: 544 ng·h/mL
KATO III [25]
  Activity: Active
[26]
  Tmax: 0.25 h
BaF3 [27]
  IC50: 332 nM
Cells [28]
  viability at 1 µM: 65%
BaF3 [29]
  IC50: 22.7 nM
[30]
  half-life: 4.65 h
[31]
  Activity: Non-Toxic
[32]
  Activity: Non-Toxic
[33]
  Activity: Non-Toxic
[34]
  AUC(0-inf): 1070 ng·h/mL
KATO III [35]
  Activity: Active
[36]
  Activity: Non-Toxic
[37]
  MRT inf: 2.27 h
[38]
  Activity: Non-Toxic
[39]
  AUC(0-inf): 570 ng·h/mL
SNU-16 [40]
  Activity: Active
KATO III [41]
  Activity: Active
SNU-16 [42]
  Activity: Active
[43]
  CL/F: 78.2 mL/min/kg
SNU-16 [2]
  IC50: < 0.17 nM
SNU-16 [44]
  Activity: Active
[45]
  AUC(0-t) at 24 h: 991 ng·h/mL

## COc1cc(OC)cc(N(CCNC(C)C)c2ccc3ncc(-c4cnn(C)c4)nc3c2)c1 [ERDAFITINIB]
Cells [7]
  viability at 0.5 µM: 70.7%
[1]
  IC50: 4 nM
SNU-16 [10]
  viability at 1 µM: 47.8%
SNU-16 [19]
  inhibition in vivo at 20 mg/kg: 104%
SNU-16 [21]
  viability at 0.5 µM: 49.9%
Cells [28]
  viability at 1 µM: 69.1%
SNU-16 [2]
  IC50: 1 nM

## COc1cc(OC)cc(N(CCNC(C)C)c2ccc3ncc(-c4cnn(CCOCCOCCOCC(=O)NCCNc5cccc6c5C(=O)N(C5CCC(=O)NC5=O)C6=O)c4)nc3c2)c1 (configuration not stated)
[1]
  IC50: 140 nM
SNU-16 [2]
  IC50: 1 nM

## COc1cc(OC)cc(N(CCNC(C)C)c2ccc3ncc(-c4cnn(CCOCCOCC(=O)NCCNc5cccc6c5C(=O)N(C5CCC(=O)NC5=O)C6=O)c4)nc3c2)c1 (configuration not stated)
[1]
  IC50: 208 nM
SNU-16 [2]
  IC50: 1 nM

## COc1cc(OC)cc(N(CCNC(C)C)c2ccc3ncc(-c4cnn(CC(=O)NCC(=O)NCCNc5cccc6c5C(=O)N(C5CCC(=O)NC5=O)C6=O)c4)nc3c2)c1 (configuration not stated)
[1]
  IC50: 523 nM
SNU-16 [2]
  IC50: 65 nM

## COc1cc(OC)cc(N(CCNC(C)C)c2ccc3ncc(-c4cnn(CCOCCOCCOCCOCC(=O)NCCNc5cccc6c5C(=O)N(C5CCC(=O)NC5=O)C6=O)c4)nc3c2)c1 (configuration not stated)
[1]
  IC50: 158 nM
SNU-16 [2]
  IC50: 10 nM

## COc1cc(OC)cc(N(CCNC(C)C)c2ccc3ncc(-c4cnn(CCCCCC(=O)NCC(=O)NCCNc5cccc6c5C(=O)N(C5CCC(=O)NC5=O)C6=O)c4)nc3c2)c1 (configuration not stated)
[1]
  IC50: 595 nM
SNU-16 [2]
  IC50: 1 nM

## COc1cc(OC)cc(N(CCNC(C)C)c2ccc3ncc(-c4cnn(CC(=O)NCCNc5cccc6c5C(=O)N(C5CCC(=O)NC5=O)C6=O)c4)nc3c2)c1 (configuration not stated)
[1]
  IC50: 463 nM
SNU-16 [2]
  IC50: 48 nM
